Measurements as given in the supplement of paper PMC6580486.
Where a name gives a salt, the structure may show the parent alone.

Legend:
[1] = test system: SkMc
Procedure: (§1)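 60-agent targeted drug screens (Drug Screen V3 on epithelioid sarcoma cultures PCB490-3/4/5, PCB495, EPS cell lines ESX, VA-ES-BJ, FU-EPS-1 and SkMc myoblasts; PPTI screen v2.1 on human UPS PCB197 and canine UPS S1-12). 384-well plates, 72 h, CellTiter-Glo viability; IC50 by Hill curve fit. 10000 nM = no IC50 achieved (top reported value).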

[2] = test system: FU-EPS-1
Procedure: as §1

[3] = test system: ESX
Procedure: as §1

[4] = test system: PCB-495 (human epithelioid sarcoma primary culture)
Procedure: as §1

[5] = test system: PCB-490-5 (human epithelioid sarcoma primary culture)
Procedure: as §1

[6] = test system: PCB-490-3 (human epithelioid sarcoma primary culture)
Procedure: as §1

[7] = test system: s1-12 (canine undifferentiated pleomorphic sarcoma culture)
Procedure: as §1

[8] = test system: pcb-00197 (human undifferentiated pleomorphic sarcoma culture)
Procedure: as §1

[9] = test system: PCB-490-4 (human epithelioid sarcoma primary culture)
Procedure: as §1

[10] = test system: VA-ES-BJ
Procedure: as §1

Structure (SMILES)	IC50 cell viability [1]	IC50 cell viability [2]	IC50 cell viability [3]	IC50 cell viability [4]	IC50 cell viability [5]	IC50 cell viability [6]	IC50 cell viability [7]	IC50 cell viability [8]	IC50 cell viability [9]	IC50 cell viability [10]
CCc1cnn2c(NCc3ccc[n+]([O-])c3)cc(N3CCCC[C@H]3CCO)nc12 [Dinaciclib]	> 10 µM	> 10 µM	0.01 µM	0.01 µM	> 10 µM	> 10 µM	0.01 µM	> 10 µM	0.1 µM	0.01 µM
CC(C)(C(=O)NCC(F)(F)C(F)(F)F)C(=O)N[C@@H]1C(=O)Nc2ccccc2-c2ccccc21	3.76 µM	> 10 µM	> 10 µM	> 10 µM	> 10 µM	> 10 µM	> 10 µM	> 10 µM	> 10 µM	> 10 µM
CC[C@@H]1C(=O)N(C)c2cnc(Nc3ccc(C(=O)N[C@H]4CC[C@H](N5CCN(CC6CC6)CC5)CC4)cc3OC)nc2N1C(C)C [Volasertib]	> 10 µM	0.35 µM	6.23 µM	6.54 µM	> 10 µM	> 10 µM	–	–	> 10 µM	1.09 µM
Cc1ccc(-c2cc(C(F)(F)F)nn2-c2ccc(S(N)(=O)=O)cc2)cc1 [Celecoxib]	> 10 µM	> 10 µM	> 10 µM	> 10 µM	> 10 µM	> 10 µM	–	–	> 10 µM	> 10 µM
Cc1[nH]c2ccccc2c1CCNCc1ccc(/C=C/C(=O)NO)cc1 [Panobinostat]	0.18 µM	0.15 µM	0.12 µM	0.23 µM	0.11 µM	0.53 µM	–	–	0.17 µM	0.02 µM
CCCc1c(OCCCOc2cc(O)c(-c3ccc(F)cc3)cc2CC)cccc1Oc1ccccc1C(=O)O	> 10 µM	> 10 µM	> 10 µM	> 10 µM	> 10 µM	> 10 µM	–	–	> 10 µM	> 10 µM
Nc1nc2c(ncn2COC(CO)CO)c(=O)[nH]1 [Ganciclovir]	> 10 µM	0.02 µM	> 10 µM	> 10 µM	> 10 µM	> 10 µM	–	–	> 10 µM	> 10 µM
Cc1nnc(C(C)C)n1C1C[C@H]2CC[C@@H](C1)N2CC[C@H](NC(=O)C1CCC(F)(F)CC1)c1ccccc1 (stereo in doubt) [Maraviroc]	> 10 µM	> 10 µM	> 10 µM	> 10 µM	> 10 µM	> 10 µM	–	–	> 10 µM	> 10 µM
CC(=O)c1c(C)c2cnc(Nc3ccc(N4CCNCC4)cn3)nc2n(C2CCCC2)c1=O	> 10 µM	> 10 µM	> 10 µM	> 10 µM	> 10 µM	> 10 µM	–	–	> 10 µM	> 10 µM
O=c1ncccn1[C@@H]1O[C@H](CO)[C@@H](O)[C@H]1O [Zebularine]	> 10 µM	> 10 µM	> 10 µM	> 10 µM	> 10 µM	> 10 µM	–	–	> 10 µM	> 10 µM
Cn1cc(NC(=O)c2cc(NC(=O)CNC(=N)N)cn2C)cc1C(=O)NCCC(=N)N [Netropsin Dihydrochloride]	> 10 µM	> 10 µM	> 10 µM	5.52 µM	> 10 µM	> 10 µM	–	–	> 10 µM	> 10 µM
COCC1(CO)C(=O)C2CCN1CC2 (stereo unspecified) [APR-246]	> 10 µM	> 10 µM	0.13 µM	> 10 µM	> 10 µM	> 10 µM	–	–	0.12 µM	> 10 µM
C[C@@H](Oc1ccc2[nH]nc(/C=C/c3cnn(CCO)c3)c2c1)c1c(Cl)cncc1Cl	> 10 µM	> 10 µM	4.52 µM	0.19 µM	0.46 µM	1.73 µM	–	–	0.5 µM	> 10 µM
Nc1ccccc1NC(=O)c1ccc(CNC(=O)OCc2cccnc2)cc1 [Entinostat]	> 10 µM	2.69 µM	> 10 µM	> 10 µM	> 10 µM	> 10 µM	0.92 µM	> 10 µM	> 10 µM	1.18 µM
CC1(C)CCC(c2ccc(Cl)cc2)=C(CN2CCN(c3ccc(C(=O)NS(=O)(=O)c4ccc(N[C@H](CCN5CCOCC5)CSc5ccccc5)c(S(=O)(=O)C(F)(F)F)c4)cc3)CC2)C1 [ABT-263]	> 10 µM	> 10 µM	> 10 µM	> 10 µM	> 10 µM	> 10 µM	–	–	> 10 µM	> 10 µM
Cc1cc(-c2ncc(CC(=O)Nc3ccc(-c4cnccn4)cn3)cc2C)ccn1 [LGK974]	> 10 µM	> 10 µM	> 10 µM	> 10 µM	> 10 µM	> 10 µM	–	–	> 10 µM	> 10 µM
CC[C@H](C)n1cc(C)c2c(C(=O)NCc3c(C)cc(C)[nH]c3=O)cc(-c3ccc(N4CCNCC4)nc3)cc21 [GSK126]	0.44 µM	> 10 µM	> 10 µM	> 10 µM	> 10 µM	> 10 µM	–	–	> 10 µM	> 10 µM
C[C@@H](Oc1cc(-c2cnn(C3CCNCC3)c2)cnc1N)c1c(Cl)ccc(F)c1Cl [Crizotinib]	0.41 µM	0.94 µM	4.37 µM	1.31 µM	4.62 µM	5.94 µM	–	–	1.8 µM	0.53 µM
CO[C@@H]1[C@H](N(C)C(=O)c2ccccc2)C[C@H]2O[C@]1(C)n1c3ccccc3c3c4c(c5c6ccccc6n2c5c31)C(=O)NC4 [PKC412]	> 10 µM	> 10 µM	6.4 µM	1.36 µM	1.73 µM	> 10 µM	–	–	1.25 µM	1.8 µM
O=C(O)c1ccc2c(c1)nc(Nc1cccc(Cl)c1)c1ccncc12 [CX-4945]	1.14 µM	0.14 µM	> 10 µM	> 10 µM	1.2 µM	> 10 µM	–	–	6.52 µM	> 10 µM
